In ChEMBL document CHEMBL1909046, “DrugMatrix in vitro pharmacology data”:

How the values were obtained:
[1] = target: T1, Interstitial collagenase (Homo sapiens, UniProt P03956); assay: biochemical; format: tissue-based, Rheumatoid synovial fibroblasts;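 further: MMP-1 enzyme inhibition assay using a peptide substrate; in other assays of this panel Not Active means under 50% inhibition at 10 µM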
T1 sequence (P03956 whole entry): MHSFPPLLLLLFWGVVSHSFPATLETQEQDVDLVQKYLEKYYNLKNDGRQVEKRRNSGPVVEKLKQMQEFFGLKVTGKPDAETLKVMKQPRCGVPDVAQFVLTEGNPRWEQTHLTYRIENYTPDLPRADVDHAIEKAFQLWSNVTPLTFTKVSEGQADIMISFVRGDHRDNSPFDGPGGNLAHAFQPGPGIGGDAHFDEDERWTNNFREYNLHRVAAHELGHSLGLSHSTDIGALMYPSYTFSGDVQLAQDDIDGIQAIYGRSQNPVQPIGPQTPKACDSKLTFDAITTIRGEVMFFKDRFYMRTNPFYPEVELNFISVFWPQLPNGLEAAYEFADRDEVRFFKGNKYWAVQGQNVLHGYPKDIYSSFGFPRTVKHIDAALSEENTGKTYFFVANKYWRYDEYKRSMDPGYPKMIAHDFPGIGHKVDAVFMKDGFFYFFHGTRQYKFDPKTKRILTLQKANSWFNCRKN

[2] = target: T2, Thromboxane-A synthase (Homo sapiens, UniProt P24557); assay: biochemical; format: tissue-based, Platelet;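 further: enzyme inhibition assay with PGH2 supplied as substrate; in other assays of this panel Not Active means under 50% inhibition at 10 µM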
T2 sequence (P24557 whole entry): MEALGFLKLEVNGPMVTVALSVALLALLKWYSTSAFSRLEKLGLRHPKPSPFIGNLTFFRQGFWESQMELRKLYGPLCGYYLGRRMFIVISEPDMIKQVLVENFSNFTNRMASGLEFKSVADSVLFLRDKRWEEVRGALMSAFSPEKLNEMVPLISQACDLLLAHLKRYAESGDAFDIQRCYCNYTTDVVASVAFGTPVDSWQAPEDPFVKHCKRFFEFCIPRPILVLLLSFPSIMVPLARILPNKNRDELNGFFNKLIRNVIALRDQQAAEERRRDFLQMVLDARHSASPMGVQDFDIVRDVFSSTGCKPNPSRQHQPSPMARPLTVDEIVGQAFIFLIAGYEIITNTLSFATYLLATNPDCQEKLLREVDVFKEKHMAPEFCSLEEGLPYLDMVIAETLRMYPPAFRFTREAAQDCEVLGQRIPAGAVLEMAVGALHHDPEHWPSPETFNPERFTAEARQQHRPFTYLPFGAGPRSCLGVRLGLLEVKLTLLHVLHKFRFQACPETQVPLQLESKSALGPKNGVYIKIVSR

[3] = target: T3, C-X-C chemokine receptor type 1 (Homo sapiens, UniProt P25024); further: in other assays of this panel Not Active means under 50% inhibition at 10 µM
T3 sequence (P25024 whole entry): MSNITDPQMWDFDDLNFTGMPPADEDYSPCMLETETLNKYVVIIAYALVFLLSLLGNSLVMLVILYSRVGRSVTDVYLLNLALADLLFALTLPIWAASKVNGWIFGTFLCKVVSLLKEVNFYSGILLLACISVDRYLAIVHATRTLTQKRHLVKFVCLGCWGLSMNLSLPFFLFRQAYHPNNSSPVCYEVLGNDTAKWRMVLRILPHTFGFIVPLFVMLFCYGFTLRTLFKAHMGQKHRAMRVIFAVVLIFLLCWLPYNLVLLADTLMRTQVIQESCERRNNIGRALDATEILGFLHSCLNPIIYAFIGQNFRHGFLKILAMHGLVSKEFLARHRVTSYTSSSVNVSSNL

[4] = target: Beta-2 adrenergic receptor (Homo sapiens, UniProt P07550); assay: DRUGMATRIX: Adrenergic beta2 radioligand binding (ligand: [3H] CGP-12177); format: cell membranes, CHO, Membrane; settings: cho; Not Active = under 50% inhibition at 10 µM
[5] = target: T4, Endothelin-1 receptor (Homo sapiens, UniProt P25101); format: cell membranes, Membrane; settings: cho-k1; further: in other assays of this panel Not Active means under 50% inhibition at 10 µM
T4 sequence (P25101 whole entry): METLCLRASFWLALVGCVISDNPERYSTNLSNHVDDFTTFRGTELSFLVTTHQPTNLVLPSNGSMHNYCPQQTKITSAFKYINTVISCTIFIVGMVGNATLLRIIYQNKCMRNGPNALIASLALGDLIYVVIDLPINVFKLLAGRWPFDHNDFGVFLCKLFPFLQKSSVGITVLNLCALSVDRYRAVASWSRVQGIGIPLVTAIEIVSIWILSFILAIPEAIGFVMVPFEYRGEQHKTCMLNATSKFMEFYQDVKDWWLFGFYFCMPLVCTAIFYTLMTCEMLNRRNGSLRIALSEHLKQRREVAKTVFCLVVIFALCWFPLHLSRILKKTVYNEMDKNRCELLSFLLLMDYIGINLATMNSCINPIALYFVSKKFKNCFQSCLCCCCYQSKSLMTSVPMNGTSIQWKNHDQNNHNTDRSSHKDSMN

[6] = DRUGMATRIX: Imidazoline I2, Central radioligand binding (ligand: [3H] Idazoxan); format: cell membranes, Rattus norvegicus, Wistar, Cerebral cortex, Membrane; settings: Not Active = under 50% inhibition at 10 µM

Compound | IC50 [1] | IC50 ([2]; platelet) | IC50 [3] | IC50 [4] | IC50 [5] | IC50 [6] | Ki [6] | IC50 ([2]; read-out: IC50) [nM] | Ki [1] | Ki ([2]; platelet) | Ki [3] | Ki [4] | Ki [5] | IC50 ([6]; read-out: IC50) [nM] | Ki ([6]; read-out: Ki) [nM]
CS(=O)(=O)c1ccc(C2=C(c3ccccc3)C(=O)OC2)cc1 [ROFECOXIB] | Not Active | Not Active | Not Active | Not Active | Not Active | Not Active | Not Active |  |  |  |  |  |  |  | 
CC1(C)[C@H](C(=O)O)N2C(=O)C[C@H]2S1(=O)=O [SULBACTAM] | Not Active | Not Active | Not Active | Not Active | Not Active | Not Active | Not Active |  |  |  |  |  |  |  | 
CC(N)C12CC3CC(CC(C3)C1)C2 (configuration not stated) [RIMANTADINE] | Not Active | Not Active | Not Active | Not Active | Not Active | Not Active | Not Active |  |  |  |  |  |  |  | 
CC[C@H](C)C(=O)O[C@H]1CCC=C2C=C[C@H](C)[C@H](CC[C@@H]3C[C@@H](O)CC(=O)O3)[C@H]21 [MEVASTATIN] | Not Active | Not Active | Not Active | Not Active | Not Active | Not Active | Not Active |  |  |  |  |  |  |  | 
O=C(OC[C@H]1O[C@@H](OC(=O)c2cc(O)c(O)c(OC(=O)c3cc(O)c(O)c(O)c3)c2)[C@H](OC(=O)c2cc(O)c(O)c(OC(=O)c3cc(O)c(O)c(O)c3)c2)[C@@H](OC(=O)c2cc(O)c(O)c(OC(=O)c3cc(O)c(O)c(O)c3)c2)[C@@H]1OC(=O)c1cc(O)c(O)c(OC(=O)c2cc(O)c(O)c(O)c2)c1)c1cc(O)c(O)c(OC(=O)c2cc(O)c(O)c(O)c2)c1 [TANNIC ACID] | Not Active |  | Not Active | Not Active | Not Active | Not Active | Not Active | 325 |  |  |  |  |  |  | 
LEAD(IV) ACETATE | Not Active | Not Active | Not Active | Not Active | Not Active | Not Active | Not Active |  | Not Active | Not Active | Not Active | Not Active | Not Active |  | 
CO[C@@H]1[C@@H](OC)[C@H](C)[C@@](O)(CC(=O)O)O[C@H]1[C@H](C)[C@H]1O[C@@]2(CC[C@@](C)([C@H]3CC[C@@](C)([C@@H]4O[C@@H]([C@H]5O[C@](C)(O)[C@H](C)C[C@@H]5C)C[C@@H]4O[C@@H]4C[C@H](OC)[C@@H](OC)[C@H](C)O4)O3)O2)C[C@H](O)[C@H]1C.N [MADURAMICIN] | Not Active | Not Active | Not Active | Not Active | Not Active | Not Active | Not Active |  |  |  |  |  |  |  | 
C[N+]1(C)[C@@H]2C[C@@H](OC(=O)[C@H](CO)c3ccccc3)C[C@H]1[C@@H]1O[C@@H]12.[Br-] [METHSCOPOLAMINE BROMIDE] | Not Active | Not Active | Not Active | Not Active | Not Active | Not Active | Not Active |  |  |  |  |  |  |  | 
Cc1nnc(NS(=O)(=O)c2ccc(N)cc2)s1 [SULFAMETHIZOLE] | Not Active | Not Active | Not Active | Not Active | Not Active | Not Active | Not Active |  |  |  |  |  |  |  | 
Cc1ccc(S(=O)(=O)NC(=O)NN2CCCCCC2)cc1 [TOLAZAMIDE] | Not Active | Not Active | Not Active | Not Active | Not Active | Not Active | Not Active |  |  |  |  |  |  |  | 
CCC(C)(C)C(=O)O[C@H]1C[C@@H](C)C=C2C=C[C@H](C)[C@H](CC[C@@H]3C[C@@H](O)CC(=O)O3)[C@H]21 [SIMVASTATIN] | Not Active | Not Active | Not Active | Not Active | Not Active | Not Active | Not Active |  |  |  |  |  |  |  | 
Cc1ccnc(NS(=O)(=O)c2ccc(N)cc2)n1 [SULFAMERAZINE] | Not Active | Not Active | Not Active | Not Active | Not Active | Not Active | Not Active |  |  |  |  |  |  |  | 
OC[C@@H](O)[C@@H](O)[C@H](O)[C@H](O)CO [MANNITOL] | Not Active | Not Active | Not Active | Not Active | Not Active | Not Active | Not Active |  |  |  |  |  |  |  | 
CCN(CC)N=O [N-NITROSODIETHYLAMINE] | Not Active | Not Active | Not Active | Not Active | Not Active | Not Active | Not Active |  |  |  |  |  |  |  | 
CC(=O)O[C@]1(C(C)=O)CC[C@H]2[C@@H]3C[C@H](C)C4=CC(=O)CC[C@]4(C)[C@H]3CC[C@@]21C [MEDROXYPROGESTERONE ACETATE] | Not Active | Not Active | Not Active | Not Active | Not Active | Not Active | Not Active |  |  |  |  |  |  |  | 
CCN1CCCC1CNC(=O)c1cc(S(N)(=O)=O)ccc1OC (configuration not stated) [SULPIRIDE] | Not Active | Not Active | Not Active | Not Active | Not Active | Not Active | Not Active |  |  |  |  |  |  |  | 
CN1C[C@H](CNC(=O)OCc2ccccc2)C[C@@H]2c3cccc4c3c(cn4C)C[C@H]21 [METERGOLINE] | Not Active | Not Active | Not Active | Not Active | Not Active |  |  |  |  |  |  |  |  | 1920 | 1280
CC(Cl)(Cl)Cl [TRICHLOROETHANE] | Not Active | Not Active | Not Active | Not Active | Not Active | Not Active | Not Active |  |  |  |  |  |  |  | 
CC1=C(/C=C/C(C)=C/C=C/C(C)=C/C(=O)O)C(C)(C)CCC1 [TRETINOIN] | Not Active | Not Active | Not Active | Not Active | Not Active | Not Active | Not Active |  |  |  |  |  |  |  | 
C=CCc1ccc2c(c1)OCO2 [SAFROLE] | Not Active | Not Active | Not Active | Not Active | Not Active | Not Active | Not Active |  |  |  |  |  |  |  | 
C1CCN2C[C@@H]3C[C@@H](CN4CCCC[C@@H]34)[C@H]2C1 [SPARTEINE] | Not Active | Not Active | Not Active | Not Active | Not Active | Not Active | Not Active |  |  |  |  |  |  |  | 
